Data published in patent US9833497B2, “Human originated EGF domain proteins and use of the same” (CHENGDU SOURCEBIO LIMITED-LIABILITY COMPANY, priority 2013, dated 2017).

What was measured:
Assay type in all cases: cell-based
E. coli DH5α = test: Antibacterial activity: MIC and growth curve against E. coli DH5α in 96-well plate; conditions: minimal inhibitory concentration against E. coli DH5α; 96-well plate, 5×10^5 CFU/mL, 37° C., judged after 8 h
Outline: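 MIC taken as lowest protein level with no bacterial growth, tracked by A600 every 30 min during 37 °C, 175 rpm culture. Two-fold protein series 50-12.5 μg/mL final, triplicate wells, against 5×10^5 CFU/mL of LB-washed mid-log cells.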

E. coli BL21 = test: MIC against Gram-negative bacteria: E. coli BL21; conditions: 5×10^5 CFU/mL
Outline: (§1)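 MIC, the lowest recombinant protein concentration giving no bacterial growth, found by two-fold serial dilution of human EGF-domain proteins in triplicate. Inoculum 5×10^5 CFU/mL in LB from cultures at McFarland 0.5; plates incubated at 37° C, 175 rpm shaking.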

Pseudomonas aeruginosa = test: MIC against Gram-negative bacteria: Pseudomonas aeruginosa; conditions: 5×10^5 CFU/mL
Outline: as §1

Klebsiella pneumonia = test: MIC against Gram-negative bacteria: Klebsiella pneumonia; conditions: 5×10^5 CFU/mL
Outline: as §1

Enterobacter cloacae = test: MIC against Gram-negative bacteria: Enterobacter cloacae; conditions: 5×10^5 CFU/mL
Outline: as §1

Aeromonas hydrophila = test: MIC against Gram-negative bacteria: Aeromonas hydrophila; conditions: 5×10^5 CFU/mL
Outline: as §1

Citrobacter diversus = test: MIC against Gram-negative bacteria: Citrobacter diversus; conditions: 5×10^5 CFU/mL
Outline: as §1

Moraxella catarrhalis = test: MIC against Gram-negative bacteria: Moraxella catarrhalis; conditions: 5×10^5 CFU/mL
Outline: as §1

Proteus mirabilis = test: MIC against Gram-negative bacteria: Proteus mirabilis; conditions: 5×10^5 CFU/mL
Outline: as §1

Proteus vulgaris = test: MIC against Gram-negative bacteria: Proteus vulgaris; conditions: 5×10^5 CFU/mL
Outline: as §1

Serratia marcescens = test: MIC against Gram-negative bacteria: Serratia marcescens; conditions: 5×10^5 CFU/mL
Outline: as §1

[1] = P. aeruginosa, 10 h cultivation at 37° C.
[2] = K. pneumonia, 10 h cultivation at 37° C.
[3] = E. cloacae, 10 h cultivation at 37° C.
[4] = A. hydrophila, 10 h cultivation at 37° C.
[5] = C. diversus, 10 h cultivation at 37° C.
[6] = M. catarrhalis, 10 h cultivation at 37° C.
[7] = P. mirabilis, 10 h cultivation at 37° C.
[8] = P. vulgaris, 10 h cultivation at 37° C.
[9] = S. marcescens, 10 h cultivation at 37° C.

Row | Substance | MIC (E. coli DH5α) [µg/mL] | MIC (μg/mL) E. coli BL21 (E. coli BL21; 10 h cultivation at 37° C.) [µg/mL] | MIC (μg/mL) P. aeruginosa (Pseudomonas aeruginosa; [1]) [µg/mL] | MIC (μg/mL) K. pneumonia (Klebsiella pneumonia; [2]) [µg/mL] | MIC (μg/mL) E. cloacae (Enterobacter cloacae; [3]) [µg/mL] | MIC (μg/mL) A. hydrophila (Aeromonas hydrophila; [4]) [µg/mL] | MIC (μg/mL) C. diversus (Citrobacter diversus; [5]) [µg/mL] | MIC (μg/mL) M. catarrhalis (Moraxella catarrhalis; [6]) [µg/mL] | MIC (μg/mL) P. mirabilis (Proteus mirabilis; [7]) [µg/mL] | MIC (μg/mL) P. vulgaris (Proteus vulgaris; [8]) [µg/mL] | MIC (μg/mL) S. marcescens (Serratia marcescens; [9]) [µg/mL] | further results
1 | PRT239 (SAGPCTPNPCHNGGTCEISEAYRGDTFIGYVCKCPRGFNGIHCQ; listed as Homo sapiens) | 25 | 12.5 | 12.5 | 12.5 | 12.5 | 12.5 | 100 | 25 | 12.5 | 12.5 | 12.5 | –
2 | PRT555 (CDCSAAGTQGNACRKDPRVGRCLCKPNFQGTHCELCAPGFYGPGCQP; listed as Homo sapiens) | 50 | – | – | – | – | – | – | – | – | – | – | MIC against E. coli BL21 (E. coli BL21; 96-well plate, 37° C., 10 h): 25 µg/mL; MIC against P. aeruginosa (Pseudomonas aeruginosa; 96-well plate, 37° C., 10 h): 12.5 µg/mL; MIC against K. pneumonia (Klebsiella pneumonia; 96-well plate, 37° C., 10 h): 25 µg/mL; MIC against E. cloacae (Enterobacter cloacae; 96-well plate, 37° C., 10 h): 50 µg/mL; MIC against A. hydrophila (Aeromonas hydrophila; 96-well plate, 37° C., 10 h): 25 µg/mL; MIC against C. diversus (Citrobacter diversus; 96-well plate, 37° C., 10 h): 12.5 µg/mL; MIC against M. catarrhalis (Moraxella catarrhalis; 96-well plate, 37° C., 10 h): 25 µg/mL; MIC against P. mirabilis (Proteus mirabilis; 96-well plate, 37° C., 10 h): 50 µg/mL; MIC against P. vulgaris (Proteus vulgaris; 96-well plate, 37° C., 10 h): 25 µg/mL; MIC against S. marcescens (Serratia marcescens; 96-well plate, 37° C., 10 h): 12.5 µg/mL
3 | PRT799 (FHACSCHNGASCSAEDGACHCTPGWTGLFCT; listed as Homo sapiens) | 25 | 12.5 | 12.5 | 12.5 | 5 | 12.5 | 12.5 | 12.5 | 12.5 | 50 | 25 | –
4 | PRT130 (ITDRCLPSYCEHGGECSQSWDTFSCDCLGTGYTGETCH; listed as Homo sapiens) | 12.5 | – | – | – | – | – | – | – | – | – | – | MIC (μg/mL) E. coli BL21 (E. coli BL21; 96-well plate, 37° C., 10 h): 25 µg/mL; MIC (μg/mL) P. aeruginosa (Pseudomonas aeruginosa; Pseudomonas aeruginosa, 96-well plate, 37° C., 10 h): 12.5 µg/mL; MIC (μg/mL) K. pneumonia (Klebsiella pneumonia; Klebsiella pneumonia, 96-well plate, 37° C., 10 h): 25 µg/mL; MIC (μg/mL) E. cloacae (Enterobacter cloacae; Enterobacter cloacae, 96-well plate, 37° C., 10 h): 12.5 µg/mL; MIC (μg/mL) A. hydrophila (Aeromonas hydrophila; Aeromonas hydrophila, 96-well plate, 37° C., 10 h): 25 µg/mL; MIC (μg/mL) C. diversus (Citrobacter diversus; Citrobacter diversus, 96-well plate, 37° C., 10 h): 50 µg/mL; MIC (μg/mL) M. catarrhalis (Moraxella catarrhalis; Moraxella catarrhalis, 96-well plate, 37° C., 10 h): 25 µg/mL; MIC (μg/mL) P. mirabilis (Proteus mirabilis; Proteus mirabilis, 96-well plate, 37° C., 10 h): 12.5 µg/mL; MIC (μg/mL) P. vulgaris (Proteus vulgaris; Proteus vulgaris, 96-well plate, 37° C., 10 h): 50 µg/mL; MIC (μg/mL) S. marcescens (Serratia marcescens; Serratia marcescens, 96-well plate, 37° C., 10 h): 12.5 µg/mL
5 | PRT144 (DKKVCSSNPCQNGGTCLNLHDSFFCICPPQWKGPLCS; listed as Homo sapiens) | 25 | 50 | 12.5 | 50 | 12.5 | 50 | 25 | 12.5 | 25 | 50 | 12.5 | –
6 | PRT177 (GPGPCDGNPCANGGSCSETPRSFECTCPRGFYGLRCE; listed as Homo sapiens) | 50 | 25 | 12.5 | 25 | 50 | 25 | 12.5 | 25 | 50 | 25 | 12.5 | –
